Reference: US20070253896A1, “7,9-Dihydro-Purin-8-One and Related Analogs as HSP90-Inhibitors” (CONFORMA THERAPEUTICS CORPORATION, priority 2006, published 2007)

Tests used:
[1] = tested on: HER2/Neu protein; assay: HER2 Degradation Assay; format: cell-based; conditions: Homo sapiens; MCF7 breast carcinoma cells, 16 h incubation, flow cytometry; concentration at which there was 50% degradation of the HER2/Neu protein
Experimental: MCF7 breast carcinoma cells (ATCC) were grown in Dulbecco's modified Eagle's medium (DMEM) containing 10% fetal bovine serum (FBS) and 10 mM HEPES, and plated in 24 well plates (50% confluent). Twenty-four hrs later (cells are 65-70% confluent), test compounds were added and incubated overnight for 16 h. […] The wells were washed with 1 mL phosphate buffered saline (PBS), and 200 μL trypsin was added to each well. After trypsinization was complete, 50 μL of FBS was added to each well. Then 200 μL cells was transferred to 96 well plates. The cells were pipetted up and down to obtain a single cell suspension. The plates were centrifuged at 2,500 rpm for 1 min using a Sorvall Legend RT™0 tabletop centrifuge (Kendro Laboratory Products, Asheville, N.C.). The cells were then washed once in PBS containing 0.2% BSA and 0.2% sodium azide (BA buffer). Phycoerythrin (PE) conjugated anti HER2/Neu antibody (Becton Dickinson, #340552), or PE conjugated anti-keyhole limpet hemocyanin [KLH] (Becton Dickinson; #340761) control antibody was added at a dilution of 1:20 and 1:40 respectively (final concentration was 1 μg/mL) and the cells were pipetted up and down to form a single cell suspension, and incubated for 15 mins. The cells were washed twice with 200 μL BA buffer, and resuspended in 200 μL BA buffer, and transferred to FACSCAN tubes with an additional 250 µL BA buffer. Samples were analyzed using a FACS Calibur™ flow cytometer (Becton Dickinson, San Jose, Calif.) equipped with Argon-ion laser that emits 15 mW of 488 nm light for excitation of the PE fluorochrome. 10,000 events were collected per sample. A fluorescence histogram was generated and the mean fluorescence intensity (MFI) of each sample was determined using Cellquest software. The background was defined as the MFI generated from cells incubated with control IgG-PE, and was subtracted from each sample stained with the HER2/Neu antibody. Cells incubated with DMSO were used as untreated controls since the compounds were resuspended in DMSO. Percent degradation of HER2 was calculated as follows: % HER2 degraded=[(MFI untreated cells−MF1 treated cells)/MFI untreated cell]×100
IC50 is defined as the concentration at which there was 50% degradation of the HER2/Neu protein.

[2] = tested on: MCF7 breast carcinoma cells; assay: MTS Assay; format: cell-based; conditions: Homo sapiens, concentration giving 50% reduction in viable cell number
Experimental: MTS assays measure the cytotoxicity of geldanamycin derivatives. MTS (3-(4,5-dimethylthiazol-2-yl)-5-(3-carboxymethoxyphenyl)-2-(4-sulfophenyl)-2H-tetrazolium) is a tetrazolium dye that is converted to a formazan product by dehydrogenase enzymes of metabolically active cells (Corey, A. et al. “Use of an aqueous soluble tetrazolium/formazan assay for cell growth assays in culture,” Cancer Commun. 1991, 3, 207-212). Cells were seeded in 96 well plates at 2000 cells/well and allowed to adhere overnight in Dulbecco's modified Eagle's medium supplemented with 10% fetal bovine serum. The final culture volume was 100 μl. Viable cell number was determined by using the Celltiter 96 AQueous Non-radioactive Cell Proliferation Assay (Promega, Madison Wis.). The MTS/PMS (phenazine methosulfate) solution was mixed at a ratio of 20:1, and 20 μL was added per well to 100 μl of culture medium. After 2-4 hours, the formation of the formazan product was measured at 490 nm absorbance using a multiwell plate spectrophotometer. Background was determined by measuring the Abs 490 nm of cell culture medium and MTS-PMS in the absence of cells and was subtracted from all values. Percent viable cells was calculated as follows: % viable cells=(Abs at 490 nm treated cells/Abs at 490 nm untreated cells)×100
The effect of selected compounds of the invention on MCF7 breast carcinoma cells according to the MTS assay is summarized in Table 2. IC50 was defined as the concentration of the compound which gave rise to 50% reduction in viable cell number.

| IC50 [1] [µM] | IC50 [2] [µM] | SMILES |
| --- | --- | --- |
| 0.13 | > 1 | CCCN(CCC)CCn1c(=O)n(Cc2ncc(C)c(I)c2C)c2nc(N)nc(Cl)c21 [Example 107, 2-amino-6-chloro-7-(2-(dipropylamino)ethyl)-9-((4-iodo-3,5-dimethylpyridin-2-yl)methyl)-7H-purin-8(9H)-one] |
| 0.09 | 0.3 | CC(=O)n1c(=O)n(Cc2ncc(C)c(I)c2C)c2nc(N)nc(Cl)c21 [Example 105, 7-acetyl-2-amino-6-chloro-9-((4-iodo-3,5-dimethylpyridin-2-yl)methyl)-7H-purin-8(9H)-one] |
| 0.14 | 0.7 | Cc1cnc(Cn2c(=O)n(CCN(C)C(C)C)c3c(Cl)nc(N)nc32)c(C)c1I [Example 108, 2-amino-6-chloro-9-((4-iodo-3,5-dimethylpyridin-2-yl)methyl)-7-(2-(isopropyl(methyl)amino)ethyl)-7H-purin-8(9H)-one] |
| 0.12 | > 1 | Cc1cnc(Cn2c(=O)n(Cc3ccccn3)c3c(Cl)nc(N)nc32)c(C)c1I [Example 99, 2-amino-6-chloro-9-((4-iodo-3,5-dimethylpyridin-2-yl)methyl)-7-(pyridin-2-ylmethyl)-7H-purin-8(9H)-one] |
| 0.03 | 0.6 | Cc1cnc(Cn2c(=O)n(CCN(C(C)C)C(C)C)c3c(Cl)nc(N)nc32)c(C)c1I [Example 98, 2-amino-6-chloro-7-(2-(diisopropylamino)ethyl)-9-((4-iodo-3,5-dimethylpyridin-2-yl)methyl)-7H-purin-8(9H)-one] |

Second part, the compound before the results:

| SMILES | IC50 [1] [µM] | IC50 [2] [µM] |
| --- | --- | --- |
| COC(=O)c1ccc(Cn2c(=O)n(Cc3ncc(C)c(OC)c3C)c3nc(N)nc(Cl)c32)cc1 [Example 80, 4-[2-Amino-6-chloro-9-(4-methoxy-3,5-dimethyl-pyridin-2-ylmethyl)-8-oxo-8,9-dihydro-purin-7-ylmethyl]-benzoic acid methyl ester] | 0.16 | > 1 |
| COc1c(C)cnc(Cn2c(=O)n(CCn3cccc3)c3c(Cl)nc(N)nc32)c1C [Example 89, 2-Amino-6-chloro-9-(4-methoxy-3,5-dimethyl-pyridin-2-ylmethyl)-7-(2-pyrrol-1-yl-ethyl)-7,9-dihydro-purin-8-one] | 0.12 | 1 |
| Cc1cnc(Cn2c(=O)n(CCn3cccc3)c3c(Cl)nc(N)nc32)c(C)c1I [Example 96, 7-(2-(1H-pyrrol-1-yl)ethyl)-2-amino-6-chloro-9-((4-iodo-3,5-dimethylpyridin-2-yl)methyl)-7H-purin-8(9H)-one] | 0.042 | 0.3 |
| Cc1cnc(Cn2c(=O)[nH]c3c(Cl)nc(N)nc32)c(C)c1I [Example 6, 2-amino-6-chloro-9-((4-iodo-3,5-dimethylpyridin-2-yl)methyl)-7H-purin-8(9H)-one] | 0.07 | 0.3 |
| COc1c(C)cnc(Cn2c(=O)n(CCC(F)=C(F)F)c3c(Cl)nc(N)nc32)c1C [Example 71, 2-Amino-6-chloro-9-(4-methoxy-3,5-dimethyl-pyridin-2-ylmethyl)-7-(3,4,4-trifluoro-but-3-enyl)-7,9-dihydro-purin-8-one] | 0.16 | > 1 |
| COc1c(C)cnc(Cn2c(=O)n(CCC=C(C)C)c3c(Cl)nc(N)nc32)c1C [Example 20, 2-Amino-6-chloro-9-(4-methoxy-3,5-dimethyl-pyridin-2-ylmethyl)-7-(4-methyl-pent-3-enyl)-7,9-dihydro-purin-8-one] | 0.14 | > 1 |
| C=CCCCn1c(=O)n(Cc2ncc(C)c(OC)c2C)c2nc(N)nc(Cl)c21 [Example 35, 2-Amino-6-chloro-9-(4-methoxy-3,5-dimethyl-pyridin-2-ylmethyl)-7-pent-4-enyl-7,9-dihydro-purin-8-one] | 0.16 | 1 |
| COc1c(C)cnc(Cn2c(=O)n(Cc3ccccn3)c3c(Cl)nc(N)nc32)c1C [Example 82, 2-Amino-6-chloro-9-(4-methoxy-3,5-dimethyl-pyridin-2-ylmethyl)-7-pyridin-2-ylmethyl-7,9-dihydro-purin-8-one] | 0.17 | 1 |
